Publication PMC7906094 (Cancer chemotherapy and pharmacology, 2020)

How the values were obtained:
CYP3A4 [1] = details: cited from earlier work
[2] = system: primary human hepatocytes; details: human hepatocytes, tenofovir 0.5 μM, emtricitabine 7.2 μM; for impact of co-incubation on triapine half-life: triapine 6 μM
CYP3A4 [3] = details: cited from earlier work; remark: listed apart in the source
CYP3A5 = details: cited from earlier work
CYP2C9 = details: microsomes; cited from earlier work
[4] = system: primary human hepatocytes; experiment: Triapine metabolism in human hepatocytes with enzyme inhibitors; format: in vitro ADME; details: in the presence of non-isoform specific CYP inhibitor N-benzyl imidazole
[5] = system: monoamine oxidases (MAO)-A/B; experiment: Triapine metabolism in human liver mitochondria; format: in vitro ADME; details: presence or absence of MAO-A and B inhibitors
[6] = system: human liver microsomal glucuronyltransferases; experiment: Triapine metabolism by glucuronosyltransferases in human liver microsomes; format: in vitro ADME; details: human liver microsomes + UDPGA, 120-minute incubation
[7] = system: aldehyde oxidase (AO) and xanthine oxidase (XO); experiment: Triapine metabolism in human liver cytosol with high AO/XO activity; format: in vitro ADME; details: 90-minute incubation, human liver cytosol enriched in AO/XO, presence or absence of raloxifene and allopurinol
[8] = cited from earlier work
[9] = human, primary human hepatocytes
CYP2C19 = CYP2C19 (Homo sapiens, UniProt P33261); format: in vitro ADME; details: triapine 6 μM, human liver microsomes
[10] = system: human liver microsomes (CYP); experiment: Triapine metabolism in human liver microsomes, pH 7.4; format: in vitro ADME
CYP = experiment: as above; format: in vitro ADME; details: human, human liver microsomes fortified with NADPH, pH 7.4
[11] = system: human liver microsomes (FMO); experiment: Triapine metabolism in human liver microsomes, pH 8.4; format: in vitro ADME
CYP3A4 [12] = details: cited from earlier work; remark: listed apart in the source

Sequence of CYP2C19 (P33261 whole entry): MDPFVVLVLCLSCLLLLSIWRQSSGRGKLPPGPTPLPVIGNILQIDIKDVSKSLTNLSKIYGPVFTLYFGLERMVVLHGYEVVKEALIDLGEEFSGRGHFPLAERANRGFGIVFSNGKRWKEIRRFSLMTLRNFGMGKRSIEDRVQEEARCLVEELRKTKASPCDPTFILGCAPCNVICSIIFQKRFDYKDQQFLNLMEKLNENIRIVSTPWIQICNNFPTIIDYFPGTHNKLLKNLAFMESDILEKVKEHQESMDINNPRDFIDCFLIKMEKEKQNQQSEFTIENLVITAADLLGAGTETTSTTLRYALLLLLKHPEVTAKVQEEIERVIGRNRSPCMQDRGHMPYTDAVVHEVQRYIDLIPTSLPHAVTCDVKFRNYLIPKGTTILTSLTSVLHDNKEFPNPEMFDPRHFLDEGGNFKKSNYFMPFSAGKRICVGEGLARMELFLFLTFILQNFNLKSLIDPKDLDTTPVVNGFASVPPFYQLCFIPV

O=C(O)CC(O)(CC(=O)O)C(=O)O [citrate]
effect on CYP3A4 catalytic activity (CYP3A4 [1]): stimulated

Nc1nc(=O)n([C@@H]2CS[C@H](CO)O2)cc1F [emtricitabine]
impact of co-incubation on %triapine remaining after 48 hours [2]: not significantly different | impact of co-incubation on triapine AUC0–48h [2]: not significantly different | impact of co-incubation on triapine half-life [2]: not impacted

CNC(=O)c1cc(Oc2ccc(NC(=O)Nc3ccc(Cl)c(C(F)(F)F)c3)cc2)ccn1 [Sorafenib]
effect on midazolam 1'-hydroxylation by CYP3A4 (CYP3A4 [3]): inhibited | effect on midazolam 1'-hydroxylation by CYP3A5 (CYP3A5): activated

C[C@H](Cn1cnc2c(N)ncnc21)OCP(=O)(O)O [tenofovir]
impact of co-incubation on %triapine remaining after 48 hours [2]: not significantly different | impact of co-incubation on triapine AUC0–48h [2]: not significantly different | impact of co-incubation on triapine half-life [2]: not impacted

CC#N [acetonitrile]
stimulation of CYP2C9 mediated tolbutamide hydroxylation (CYP2C9): 2–3 fold

CCN(CC)CCNC(=O)c1c(C)[nH]c(/C=C2\C(=O)Nc3ccc(F)cc32)c1C [sunitinib]
effect on midazolam 1'-hydroxylation by CYP3A4 (CYP3A4 [3]): inhibited | effect on midazolam 1'-hydroxylation by CYP3A5 (CYP3A5): activated

CC(C)=O [acetone]
stimulation of CYP2C9 mediated tolbutamide hydroxylation (CYP2C9): 2–3 fold

NC(=S)NN=Cc1ncccc1N [Triapine, 3-aminopyridine-2-carboxaldehyde thiosemicarbazone]
triapine metabolism in hepatocytes [4]: inhibited | triapine depletion [5]: no triapine depletion | triapine remaining [6]: 100.3% | metabolism of triapine [7]: did not undergo metabolism | Cmax ([8]; after intravenous or oral dosing): ~5 µM | total body clearance ([8]; humans, intravenous administration): 57.5 ± 25 L/h | time to reach Cmax ([8]; humans, oral administration): 1.9 ± 1.4 h | urinary excretion ([8]; humans): minimal | half-life at 6 μM [9]: 8 h | increase of metabolism of CYP2C19 probe S-mephenytoin (CYP2C19): 20% | depletion of triapine ([10]; NADPH-fortified human liver microsomes pH 7.4 in the presence of CYP non-specific inhibitor N-benzyl imidazole (1 mM)): Minimal depletion | triapine remaining intact ([10]; control incubation without either NADPH or microsomes, after 2 h): > 95% | half-life at 6 μM (CYP): ~3 h | triapine disappeared ([11]; human liver microsomes, phosphate buffer pH 8.4, fortified with NADPH, within 2 h): 17% | depletion of triapine ([11]; pH 8.4, control incubation without NADPH): 9% | depletion of triapine ([11]; pH 8.4, in the presence of FMO inhibitor methimazole (200 μM)): 9%

C=C[C@H]1C[N@@]2CC[C@H]1C[C@@H]2[C@@H](O)c1ccnc2ccc(OC)cc12 [quinidine]
increase of CYP3A4 Vmax for R-warfarin 10-hydroxylation (CYP3A4 [12]): 5 fold | increase of CYP3A4 Vmax for S-warfarin 4'-hydroxylation (CYP3A4 [12]): 2.5 fold | increase of CYP3A4 mediated 5-, 5'-, and 10-hydroxylation of diclofenac, piroxicam and R-warfarin (CYP3A4 [12]): 5–7 fold
